# Laboratory results reported in patent US6743925B1, “Nitroimidazole derivative and diagnostic imaging agent containing the same” (Pola Chemical Industries, Inc., priority 1999, dated 2004).
# Test system: cancer-bearing mice (WHT/Ht albino mice), squamous-cell carcinoma and fibrosarcoma
# Experiment: Radiation intensity of each organ after intravenous injection to cancer-bearing mice
# Format: in vivo
# Protocol: Compound 4 of Example 4 was intravenously injected to cancer-bearing mice (WHT/Ht albino mice) (3 mice per group). Systemic frozen sections of each mouse were prepared 10, 30, 60, 120, and 150 minutes after intravenous injection, and the radiation intensity of each organ was measured. Squamous-cell carcinoma and fibrosarcoma were employed as cancer sources. When the sections was prepared, blood was collected separately, and the ratio of radiation intensity in each organ to that in blood was obtained.
# [1] = 10 min. after intravenous injection
# [2] = 30 min. after intravenous injection
# [3] = 60 min. after intravenous injection
# [4] = 120 min. after intravenous injection
# [5] = 150 min. after intravenous injection
smiles,measurement,setting,value
"O=[N+]([O-])c1nccn1COC(CO)C[18F] (stereo not shown) [Compound 4, 1-[2-fluoro(^18F)-1-(hydroxymethyl)ethoxy]methyl-2-nitroimidazole]","radiation intensity, Blood",[1],2.222
same,"radiation intensity, Bone",[1],1.157
same,"radiation intensity, Brain",[1],1.168
same,"radiation intensity, Fibrosarcoma",[1],1.584
same,"radiation intensity, Heart",[1],1.721
same,"radiation intensity, Intestine",[1],1.697
same,"radiation intensity, Kidney",[1],7.935
same,"radiation intensity, Liver",[1],10.300
same,"radiation intensity, Lung",[1],2.151
same,"radiation intensity, Muscle",[1],1.576
same,"radiation intensity, Squamous carcinoma",[1],2.192
same,"radiation intensity, Testis",[1],0.861
same,"ratio of radiation intensity, Fibrosarcoma/blood",[1],0.697
same,"ratio of radiation intensity, Squamous carcinoma/blood",[1],0.893
same,"radiation intensity, Blood",[2],1.068
same,"radiation intensity, Bone",[2],0.617
same,"radiation intensity, Brain",[2],0.815
same,"radiation intensity, Fibrosarcoma",[2],1.319
same,"radiation intensity, Heart",[2],0.929
same,"radiation intensity, Intestine",[2],0.767
same,"radiation intensity, Kidney",[2],5.667
same,"radiation intensity, Liver",[2],5.018
same,"radiation intensity, Lung",[2],1.347
same,"radiation intensity, Muscle",[2],0.742
same,"radiation intensity, Squamous carcinoma",[2],1.237
same,"radiation intensity, Testis",[2],0.852
same,"ratio of radiation intensity, Fibrosarcoma/blood",[2],1.234
same,"ratio of radiation intensity, Squamous carcinoma/blood",[2],1.012
same,"radiation intensity, Blood",[3],0.379
same,"radiation intensity, Bone",[3],0.244
same,"radiation intensity, Brain",[3],0.308
same,"radiation intensity, Fibrosarcoma",[3],0.619
same,"radiation intensity, Heart",[3],0.378
same,"radiation intensity, Intestine",[3],0.533
same,"radiation intensity, Kidney",[3],1.856
same,"radiation intensity, Liver",[3],1.692
same,"radiation intensity, Lung",[3],0.596
same,"radiation intensity, Muscle",[3],0.314
same,"radiation intensity, Squamous carcinoma",[3],0.466
same,"radiation intensity, Testis",[3],0.466
same,"ratio of radiation intensity, Fibrosarcoma/blood",[3],1.634
same,"ratio of radiation intensity, Squamous carcinoma/blood",[3],1.384
same,"radiation intensity, Blood",[4],0.117
same,"radiation intensity, Bone",[4],0.253
same,"radiation intensity, Brain",[4],0.116
same,"radiation intensity, Fibrosarcoma",[4],0.421
same,"radiation intensity, Heart",[4],0.216
same,"radiation intensity, Intestine",[4],0.56
same,"radiation intensity, Kidney",[4],0.699
same,"radiation intensity, Liver",[4],0.730
same,"radiation intensity, Lung",[4],0.353
same,"radiation intensity, Muscle",[4],0.139
same,"radiation intensity, Squamous carcinoma",[4],0.133
same,"radiation intensity, Testis",[4],0.412
same,"ratio of radiation intensity, Fibrosarcoma/blood",[4],3.601
same,"ratio of radiation intensity, Squamous carcinoma/blood",[4],2.904
same,"radiation intensity, Blood",[5],0.096
same,"radiation intensity, Bone",[5],0.218
same,"radiation intensity, Brain",[5],0.126
same,"radiation intensity, Fibrosarcoma",[5],0.351
same,"radiation intensity, Heart",[5],0.186
same,"radiation intensity, Intestine",[5],0.488
same,"radiation intensity, Kidney",[5],0.511
same,"radiation intensity, Liver",[5],0.800
same,"radiation intensity, Lung",[5],0.331
same,"radiation intensity, Muscle",[5],0.159
same,"radiation intensity, Squamous carcinoma",[5],0.101
same,"radiation intensity, Testis",[5],0.139
same,"ratio of radiation intensity, Fibrosarcoma/blood",[5],3.675
same,"ratio of radiation intensity, Squamous carcinoma/blood",[5],2.357
